# According to patent US5112866A, “Ethanesulfonamide derivatives” (Ortho Pharmaceutical Corporation, priority 1989, dated 1992):
# pIC50: −log10 of the molar value. Read-outs that look alike come from different tables or passages of the source.
# Key:
# [1] = system: Rabbit Isolated Parietal Cells; assay: Inhibition of 14C-aminopyrine accumulation in stimulated rabbit isolated parietal cells; assay type: cell-based; conditions: Oryctolagus cuniculus, 37° C.
# Description: Pharmacology of the Ethanesulfonamide Compounds - Rabbit Isolated Parietal Cells
# Parietal cells were isolated from the fundic mucosa of rabbit stomachs by a four-stage collagenase digestion Process. The supernatant fraction from the last two stages of this Process contained the individual parietal cells. This cell suspension was centrifuged and reconstituted in a modified Hank's buffer to contain 2-3×10^6 cells/ml. […] The accumulation is stimulated by histamine and is blocked by H2 antagonists. Accumulation of ^14 C-AP is also stimulated by dibutyryl cAMP (dbcAMP). The cells were incubated with 0.5×10^6 cpm ^14 C-AP, with various concentrations of histamine or dbcAMP, […] isobutylmethylxanthine, and test compound added in a 20 μl volume of buffer or dimethylsulfoxide. The flasks were incubated in a shaking water bath at 37° C. Two 0.5 ml aliquots were then taken from each flask and cell pellets were collected by centrifugation. The pellets were solubilized with Protosol (NEN) and radioactivity determined by liquid scintillation spectrometry.
# The concentration of compound required to inhibit ^14 C-AP accumulation in the stimulated parietal cell by 50% (IC50) was determined.
# [2] = system: Gastric Secretion; assay: Inhibition of Gastric Secretion in Rat (pylorus ligated); assay type: in vivo, rat (male Charles River); conditions: intraduodenal, four hours after pylorus ligation
# Method: Inhibition of Gastric Secretion in Rat
# Male Charles River rats weighing 150-300 grams were deprived of food but not water for 18-24 hours prior to use. Water was withheld during the experiment. The rats were weighed, anesthetized with ether and the pylorus ligated according to the method of Shay, H. et al., Gastroenterol. 26, 906 (1954). Test compounds were suspended in a 0.5% aqueous solution of methylcellulose (15 cps) and administered intraduodenally (i.d.) at the time of ligation. The rats were housed two per cage and sacrificed with CO2 four hours after ligation. The stomachs were removed and contents emptied into a graduated centrifuge tube. The tubes were centrifuged, the volume of gastric juice recorded, and any samples obviously contaminated by feces, food or blood eliminated. A 1 ml aliquot of gastric juice was titrated with 0.1 N NaOH to a pH of 7.0-7.4.
# The volume of gastric juice secreted, the acid concentration, and the product of the volume times the concentration, i.e., the total amount of acid secreted, were statistically compared by a student's t-test using the pooled error variance.
# [3] = system: Mouse osteoblastic-line cells (MC3T3-El); assay: Mouse Osteoblast-line Cell Proliferation (3H-thymidine); assay type: cell-based; conditions: 0.1% FBS
# Method: Pharmacology of the Ethenesulfonyl Fluoride Compounds--In Vitro Mouse Osteoblast-line Cell Proliferation
# Reagents: Mouse osteoblastic-line cells (MC3T3-El) were plated in Dulbeccos Modified Eagles Medium (DMEM) with 25 mM Hepes Buffer, L-Glutamine, D-Glucose(4.5 gm/1) supplemented with 10% fetal bovine sera, Penicillin (100 units/ml) and Streptomycin ([…]) (Penicillin-Streptomycin liquid) and sodium pyruvate (10 μM final concentration). ^3 H-Thymidine (6.7 Ci/mmole) was diluted in DMEM media without FBS and filter sterilized. An aliquot of this solution was delivered to each culture well to a final concentration of ^3 H-thymidine of 0.4 μCi per well (2 μCi/ml).
# Test Preparations: Solutions of the test compound were made on the day before incubation. These compounds were solubilized in either ethanol or DMSO at a concentration of 100 mM containing 0.1% FBS. The solutions were filter sterilized and then sterile serial dilutions were performed with DMEM media containing 0.1% FBS.
# Osteoblast line cells were plated into 96 well culture plates, 1600 cells in 100 μL per well in DMEM with 25 mM Hepes Buffer, L-Glutamine, D-Glucose (4.5 gm/L) supplemented with 10% fetal bovine sera, Penicillin (100 units/mL) and Streptomycin (100 μg/mL) and sodium Pyruvate (10 μM final concentration). The media was replaced with DMEM containing no FBS and the cells were then incubated for an additional 24 hours. The following day, test compounds were added and screened at concentrations ranging from 10^-10 to 10^-5 M in the Presence of 0.1% FBS. The cells were then incubated an additional 20 hours. At this time 0.4 μ/Ci of 3H-thymidine was added to each culture well and the cells were incubated an additional 4 hours. The cells were then harvested with a Skatron Cell Harvester onto a glass fiber filter and washed with water, %5 trichloroacetic acid (TCA) and then 95% ethanol. The filters were then processed and counted on the LKB beta plate scintillation counter.
# [4] = system: bone protein; assay: In vivo [3H]Proline incorporation into bone protein, bone mitogen activity in the aged Fisher 344 rat; design: species or system rat (female Fisher 344); conditions: daily intraperitoneal, sesame oil
# Method: (§1) Pharmacology of the Ethenesulfonyl Fluoride Compounds--[…] Bone Mitogen Activity in the Aged Fisher 344 Rat
# (§2) Animals: Female Fisher 344 rats, 12 months of age, were housed in climate controlled light/dark (12-hour cycle) rooms and given food and water ad libitum.
# (§3) Test Compounds: The test compounds were suspended in sesame oil and administered daily via intraperitoneal injections; vehicle treated rats were administered sesame oil along (2 mL/kg).
# In vivo [^3 H]Proline Incorporation: [^3 H]Proline incorporation into bone protein was carried out as previously described (Reddi and Huggins, 1975). [^3 H]Proline was injected intraperitoneally at a dose of 0.5 μCi/g body weight in 0.9% NaCl. Four hours after the injection, rats were bled by cardiac puncture and then killed by CO2 asphyxiation and the tibia removed and the radioactivity quantified as in Example 28.
# [5] = system: tibia; assay: In vivo [3H]Tetracycline incorporation into tibia, bone mitogen activity in the aged Fisher 344 rat; design: species or system rat (female Fisher 344); conditions: daily intraperitoneal, sesame oil
# Method: as §1, §2, §3
# In vivo [^3 H]Tetracycline Incorporation: Tritiated tetracycline, which is rapidly concentrated in the growing skeleton, can be used as a relative measure of bone forming surface in vivo. [^3 H]Tetracycline was injected intraperitoneally at a dose of 0.125 μCi/g body weight in a 0.9% NaCl solution. Two hours after injection, rats were bled by cardiac puncture and then killed by CO2 asphyxiation and the tibia removed and cleaned of tissue and marrow. The tibia are homogenized and digested in 2 N NaOH for 2 hours. The precipitate is washed and then hydrolyzed in 6N Hcl. An aliquot of the resulting supernatant is analyzed for tritiutum.
# [6] = system: osteoblasts; conditions: Farley, et al., Science, 1983; cited from earlier work
# [7] = cited from earlier work
# [8] = 14C-AP accumulation stimulated by dibutyryl cAMP, read-out: IC50 (dbcAMP)
# [9] = 14C-AP accumulation stimulated by histamine, read-out: IC50 (H)
SMILES,"pIC50 [1, 8]","pIC50 [1, 9]",% Reduction of Total Acid Output ([2]; Dose 20 MPK),Mouse Osteoblast-line Cell Proliferation [Expressed as a Percent of Control] ([3]; 0.001 μM),Mouse Osteoblast-line Cell Proliferation [Expressed as a Percent of Control] ([3]; 0.01 μM),Mouse Osteoblast-line Cell Proliferation [Expressed as a Percent of Control] ([3]; 0.1 μM),Mouse Osteoblast-line Cell Proliferation [Expressed as a Percent of Control] ([3]; 1.0 μM),Mouse Osteoblast-line Cell Proliferation [Expressed as a Percent of Control] ([3]; 10 μM),Percent Incorporation of [3H]Tetracycline of Control ([5]; 50 mg/Kg),other results
"O=S(=O)(CCNc1ccc(Cl)c(C(F)(F)F)c1)NCCCOc1cccc(CN2CCCCC2)c1 [Example 9, 2-[(4-Chloro-3-trifluoromethylphenyl)amino]-N-[3-[3-(piperidinomethyl)phenoxy]propyl]ethanesulfonamide]",6.51,6.80,–,–,–,–,–,–,–,% Reduction of Total Acid Output ([2]; Dose 40 MPK): 24.7%
"CCCCc1ccc(NCCS(=O)(=O)NCCCOc2cccc(CN3CCCCC3)c2)cc1 [Example 10, 2-[(4-Butylphenyl)amino]-N-[3-[3-(piperidinomethyl)phenoxy]propyl]ethanesulfonamide]",6.64,6.55,23.3%,–,–,–,–,–,–,–
"CC1CCN(Cc2cccc(OCCCNS(=O)(=O)CCNc3ccc(Cl)c(Cl)c3)c2)CC1 [Example 11, 2-[(3,4-Dichlorophenyl)amino]-N-[3-[3-[(4-methylpiperidin-1-yl)methyl]-phenoxy]propyl]ethanesulfonamide]",6.34,7.24,29.0%,–,–,–,–,–,–,–
COc1cc(NCCS(=O)(=O)F)c(C(C)=O)cc1OC [Example 14],–,–,–,120.9% of Control,159.5% of Control,125.3% of Control,170.3% of Control,180.3% of Control,119.6 Percent Incorporation of Contr,Percent Incorporation of [3H]Proline of Control ([4]; 15 mg/Kg): 100.7 Percent Incorporation of Contr; Percent Incorporation of [3H]Proline of Control ([4]; 50 mg/Kg): 118.1 Percent Incorporation of Contr; Percent Incorporation of [3H]Proline of Control ([4]; 150 mg/Kg): 121.0 Percent Incorporation of Contr
O=S(=O)(F)CCNc1ccc(Cl)cc1 [Example 15],–,–,–,129.6% of Control,119.9% of Control,123.5% of Control,93.4% of Control,106.7% of Control,125.1 Percent Incorporation of Contr,Percent Incorporation of [3H]Tetracycline of Control ([5]; 15 mg/Kg): 118.0 Percent Incorporation of Contr; Percent Incorporation of [3H]Tetracycline of Control ([5]; 25 mg/Kg): 114.0 Percent Incorporation of Contr
"[F-].[Na+] [sodium fluoride, Sodium fluoride]",–,–,–,–,–,–,–,–,–,"proliferation and activity of bone forming cells, osteoblasts [6]: causes proliferation and increases the activity of bone forming cells, osteoblasts; rate of bone fracture ([7]; fluoride treatment, Riggs, et al., N. Engl. J. Med., 1982): significantly decreased; adverse reactions ([7]; in vivo): gastrointestinal side effects (nausea, vomiting, diarrhea and bleeding) and rheumatic complications (synovitis and plantar fascial syndrome); bone formation and bone mass ([7]; osteoporosis): increases bone formation and leads to an increase in bone mass in osteoporosis"
